According to US20060024414A1, “Methods for preserving food products” (Kraft Foods Holdings, Inc., priority 2004, published 2006):

Columns and labels:
Listeria monocytogenes [1] = details: cells sensitized with the antioxidant at the time of pressure treatment; Mackey et al. 1995; cited from earlier work
Listeria monocytogenes [2] = details: model milk system; Payne et al. 1989; cited from earlier work
[3] = system: Listeria monocytogenes OSY-328; test: Inoculated bagged Vienna sausage challenge, warm enrichment/plating for survivors; type: cell-based; details: nisin 100 IU/g, TBHQ 0 ppm, sausage about 10^6 CFU/g, about 5 min
Description: (§1) In another embodiment, a food substrate processed according to methods of this invention has nondetectable levels of Listeria (even if contamination has occurred). […] The mixture is incubated at 37° C. for 48 hours, followed by the enrichment (mixture) being streaked on Oxford agar or […] agar, and observing the streaked plate for the presence/absence of Listeria. […] Tailing effects also may be reduced or eliminated by methods of the present invention. The presence or absence of other microorganisms may be detected using similar techniques modified for the specific microorganism under consideration. The edible hydroquinone was tert-butylhydroquinone (TBHQ) at a level of either 0 or 100 ppm. The tert-butylhydroquinone was a food grade material obtained from Sigma Chemical Co. (St. Louis, Mo.). The lantibiotic was nisin at a level of either 0 or 100 IU/g. The nisin used was either pure nisin or a commercial nisin ([…]®), both from Aplin & Barrett, Ltd. (Trowbridge, England). […] Nisin samples were prepared by dissolving nisin powder in distilled water, adjusting the pH to 2 with HCl, and sterilizing at 121° C. for 10 minutes. Samples were prepared and used on the same day for each experiment. Three strains of Listeria monocytogenes were used in these challenge studies. Listeria monocytogenes Scott A, OSY-8578, and OSY-328, were obtained from the Food Safety Laboratory of the Department of Food Science and Technology at The Ohio State University (Columbus, Ohio). All experiments were carried out with cultures in stationary phase (grown in tryptose broth (TB; Difco Laboratories, Detroit, Mich.) for 18 hours at 37° C.). […] The hydrostatic pressure used was 600 MPa. For comparison purposes, samples were also treated with no hydrostatic pressure (i.e., under atmospheric pressure). A hydrostatic food processor (Quintus QFP-6, ABB Autoclave Systems, Inc., Columbus, Ohio) was used with a pressure transmitting fluid containing a water/propylene glycol (1:1 vol/vol; Houghto-Safe 620-TY, Houghton International, Inc., Valley Forge, Pa.). Samples were held in a refrigerator before processing and placed on ice following treatment. The temperature during each run was monitored using a thermocouple and a datalogger (Campbell Scientific, Inc., Logan, Utah). […] Canned Vienna sausage (Armour®, The Dial Corporation, Scottsdale, Ariz.) was purchased from local grocery stores. […] One milliliter of each additive, alone or in combinations, was added, and the bags were sealed using vacuum […], Kansas City, Mo.). […] Non-pressurized samples were treated in a similar manner except that no pressure was applied. After high pressure processing, bags were opened aseptically. […] The presence or absence of L. monocytogenes survivors in the samples was determined by streaking the incubated mixture onto Oxford agar and/or […] agar. Each test run consisted of 5 tested bags at a given set of variables; the experiment was repeated 4 times. Treatment conditions required for essentially total elimination of L. monocytogenes were determined using essentially the same materials and procedures as used in Example 1 except that the nisin level was 0, 100, or 200 IU/g; the hydroquinone level was 0, 100, 200, or 300 ppm; and each experiment was repeated 3 times.

[4] = system: Listeria monocytogenes OSY-8578; test: as above; type: cell-based; details: nisin 100 IU/g, TBHQ 0 ppm, sausage about 10^6 CFU/g, about 5 min
Description: as §1

[5] = system: Listeria monocytogenes Scott A; test: as above; type: cell-based; details: nisin 100 IU/g, TBHQ 0 ppm, sausage about 10^6 CFU/g, about 5 min
Description: as §1

## COc1ccc(O)c(C(C)(C)C)c1 [BHA, butylated hydroxyanisole]
Listeria monocytogenes [1]
  resistance of Listeria monocytogenes to high hydrostatic pressure treatment (sensitizing effect): reduced

## Cc1cc(C(C)(C)C)c(O)c(C(C)(C)C)c1 [BHT, Butylated hydroxy toluene]
Listeria monocytogenes [1]
  resistance of Listeria monocytogenes to high hydrostatic pressure treatment (sensitizing effect): not effective

## CCCOC(=O)c1ccc(O)cc1 [Propyl paraben]
Listeria monocytogenes [2]
  antimicrobial activity against Listeria monocytogenes: only consistently active inhibitor

## nisin (ITSISLCTPGCKTGALMGCNMKTATCHCSIHVSK; not fully specified; Lantibiotic nisin-A; UniProt P13068 24-57, looked up) [lantibiotic; antimicrobial polypeptide produced by Lactococcus lactis; pure nisin or commercial Nisaplin from Aplin & Barrett]
[3]; Run 2: 0 MPa
  Percentage of Bags Testing Positive For Listeria in Batch of 5 (±S.D.): 100%
[3]; Run 6: 600 MPa
  Percentage of Bags Testing Positive For Listeria in Batch of 5 (±S.D.): 10 (±20) %
[4]; Run 2: 0 MPa
  Percentage of Bags Testing Positive For Listeria in Batch of 5 (±S.D.): 100%
[4]; Run 6: 600 MPa
  Percentage of Bags Testing Positive For Listeria in Batch of 5 (±S.D.): 30 (±38) %
[5]; Run 2: 0 MPa
  Percentage of Bags Testing Positive For Listeria in Batch of 5 (±S.D.): 100%
[5]; Run 6: 600 MPa
  Percentage of Bags Testing Positive For Listeria in Batch of 5 (±S.D.): 15 (±19) %
